According to US8629293B2, “Process for the preparation of FE(III) chelates of N,N′-DI(2-hydroxybenzyl)-ethylenediamine-N,N′-diacetic acid and its derivatives” (Przedsiebiorstwo Produkcyjno-Consultingowe Adob SP. Z O.O. …, priority 2009, dated 2014):

Tests used:
Type in all cases: in vivo
[1] = test system: soybean (Glycine max L.) var. Stine 0480; test: Fertilising of soya in plant growth climatic chamber: plant dry matter
Protocol: (§1) The experiment was performed using the seeds of soybean (Glycine max L.) var. Stine 0480. A standard seed germination procedure was followed. Before starting the experiment, the seeds were thoroughly washed with water (30 minutes). The clean seeds were placed between two sheets of a cellulose paper soaked with water. The seeds germinated over two days in a climatic chamber at a temperature of 30° C. and a humidity of 60%, without access of light. After that time, the seedlings at a similar stage of development were placed on perforated trays floating over containers containing 10 L of the diluted nutrient solution for four days, followed by next three days using a solution containing micronutrients but without iron. Composition of the nutrient solution was: 1 mM Ca(NO3)2, 0.90 mM KNO3, 0.30 mM MgSO4, 0.10 mM KH2PO4, 2.5 μM MnSO4, 1.0 μM CuSO4, 10 μM ZnSO4, 1.0 μM NiCl2, 1.0 μM CoSO4, 115.5 μM Na2EDTA, 231 μM KOH, 35 μM NaCl, 10 μM H3BO3, 0.05 μM Na2MoO4 and 0.1 mM of N-(2-hydroxyethyl)piperazine-N′-(2-ethanesulfonic acid) sodium salt (HEPES). The pH value was adjusted to 7.5 using 1M KOH. 1-litre pots were filled with soil and sand in a volume ratio of 2:1. The test plants were transplanted into the thus-prepared pots, 3 plants per each pot. The experiment was carried out with adhering to the daily cycle of plant growth: 16 h of day time (30° C., 50% humidity) and 8 h of night time (25° C., 70% humidity).
(§2) Seven days after transplanting the plants into the pots, the symptoms of chlorosis were observed. The further part of the experiment was aimed at comparison of the effectiveness of performance of FeHBED with that of the commercially available FeEDDHA. For this purpose, the solutions of FeHBED and FeEDDHA were prepared, in which the iron isotope ^57Fe was used. The concentrations of ^57Fe in the doses were 0, 1.7, 3.4, 8.4, 16.8, 25.1 and 41.9 μmol of ^57Fe/kg of soil. Each dose was applied in duplicate. Additionally, a blank test (without iron) was performed for three pots.
Table 1 summarises the results of dry matter of above-ground sprouts (leaves and stems) for the plants gathered after every application of iron solutions of various concentration for two samplings.

[2] = test system: soybean (Glycine max L.) var. Stine 0480; test: Fertilising of soya in plant growth climatic chamber: SPAD index (leaves greenness); conditions: for The SPAD index, 2nd level of foliage / The SPAD index, 3rd level of foliage: end of experiment
Protocol: as §1, §2
The SPAD index (a measure of leaves greenness) was determined every two days during the whole experiment.

[3] = test system: 7-year old trees of flat peach (Prunus persica var. platycarpa) grafted on the GF677 root stock with visible symptoms of chlorosis; test: Field test, testing field No. 2: SPAD index of leaves; conditions: for ΔSPAD index of leaves: 0.9 g of the chelated Fe/tree
Protocol: (§3) The comparison included two chelate agents for supplementing iron deficiencies: HBED/Fe^3+ as well as the commercially available, highly purified EDDHA/Fe^3+. The studies were carried out on two fields with the soil having an alkaline pH as well as a high concentration of calcium ions. The chelates were applied directly to the soil by means of a dripper immersed in the soil.
7-year old trees of flat peach (Prunus persica var. platycarpa) grafted on the GF677 root stock with visible symptoms of chlorosis
The chelates were applied at the following concentrations: • EDDHA/Fe^3+: high concentration (0.9 g of the chelated Fe/tree) • HBED/Fe^3+: high concentration (0.9 g of the chelated Fe/tree) • control trial: without Fe
The chelate solutions were dosed directly to the ground below the dripper. In this case, the whole dose of the chelates were applied in one portion. The symptoms of chlorosis were visible at the beginning of the experiment.
The samples for determination of the SPAD index of leaves were taken approximately every two weeks (on day 0, 20, 40 and 63 after application of the chelates).

[4] = test system: 10-year old nectarine trees, cultivar "Zephyr" grafted on the GF677 root stock; test: Field test, testing field No. 1: SPAD index
Protocol: as §3
10-year old nectarine trees, cultivar “Zephyr” grafted on the GF677 root stock
The chelates were applied at the following concentrations: • EDDHA/Fe^3+: high concentration (0.9 g of the chelated Fe/tree) • HBED/Fe^3+: low concentration (0.45 g of the chelated Fe/tree) • HBED/Fe^3+: high concentration (0.9 g of the chelated Fe/tree) • control trial: without Fe
The chelate solutions of various concentrations were applied in three portions (50%, 30%, and finally 20% of the whole dose, respectively) directly to the ground below the dripper.
The SPAD index was measured approximately every two weeks: on day 14, 29, 44, 61, 88 and 99 after application of the chelates.

[5] = 0.45 g of the chelated Fe/tree, day 14 after application
[6] = 0.45 g of the chelated Fe/tree, day 29 after application
[7] = 0.45 g of the chelated Fe/tree, day 44 after application
[8] = 0.45 g of the chelated Fe/tree, day 61 after application
[9] = 0.45 g of the chelated Fe/tree, day 88 after application
[10] = 0.45 g of the chelated Fe/tree, day 99 after application
[11] = 0.9 g of the chelated Fe/tree, day 14 after application
[12] = 0.9 g of the chelated Fe/tree, day 29 after application
[13] = 0.9 g of the chelated Fe/tree, day 44 after application
[14] = 0.9 g of the chelated Fe/tree, day 61 after application
[15] = 0.9 g of the chelated Fe/tree, day 88 after application
[16] = 0.9 g of the chelated Fe/tree, day 99 after application

O=C(O)CN(CCN(CC(=O)O)Cc1ccccc1O)Cc1ccccc1O [HBED]
Sprout dry weights compared with o,oEDDHA/57Fe3+ ([1]; conclusion from Table 1, all doses): no evident difference in the sprout dry weights | Root dry weight ([1]; dose 1.7 μmol 57Fe/kg of soil): 0.33 g/3 plants | Sprout dry weight, 1 sampling ([1]; dose 1.7 μmol 57Fe/kg of soil): 0.73 g/plant | Sprout dry weight, 2 sampling ([1]; dose 1.7 μmol 57Fe/kg of soil): 2.20 g/plant | Root dry weight ([1]; dose 3.4 μmol 57Fe/kg of soil): 0.53 g/3 plants | Sprout dry weight, 1 sampling ([1]; dose 3.4 μmol 57Fe/kg of soil): 0.79 g/plant | Sprout dry weight, 2 sampling ([1]; dose 3.4 μmol 57Fe/kg of soil): 2.83 g/plant | Root dry weight ([1]; dose 8.4 μmol 57Fe/kg of soil): 0.56 g/3 plants | Sprout dry weight, 1 sampling ([1]; dose 8.4 μmol 57Fe/kg of soil): 0.91 g/plant | Sprout dry weight, 2 sampling ([1]; dose 8.4 μmol 57Fe/kg of soil): 2.62 g/plant | Root dry weight ([1]; dose 16.8 μmol 57Fe/kg of soil): 0.51 g/3 plants | Sprout dry weight, 1 sampling ([1]; dose 16.8 μmol 57Fe/kg of soil): 0.72 g/plant | Sprout dry weight, 2 sampling ([1]; dose 16.8 μmol 57Fe/kg of soil): 3.19 g/plant | Root dry weight ([1]; dose 25.1 μmol 57Fe/kg of soil): 0.43 g/3 plants | Sprout dry weight, 1 sampling ([1]; dose 25.1 μmol 57Fe/kg of soil): 0.92 g/plant | Sprout dry weight, 2 sampling ([1]; dose 25.1 μmol 57Fe/kg of soil): 2.66 g/plant | Root dry weight ([1]; dose 41.9 μmol 57Fe/kg of soil): 0.49 g/3 plants | Sprout dry weight, 1 sampling ([1]; dose 41.9 μmol 57Fe/kg of soil): 0.79 g/plant | Sprout dry weight, 2 sampling ([1]; dose 41.9 μmol 57Fe/kg of soil): 2.63 g/plant | SPAD index compared with o,oEDDHA/57Fe3+ ([2]; both levels of foliage): No significant differences in the values of the SPAD index | The SPAD index, 2nd level of foliage ([2]; 1.7 μmol of 57Fe/kg of soil): 29.58 | The SPAD index, 3rd level of foliage ([2]; 1.7 μmol of 57Fe/kg of soil): 34.09 | The SPAD index, 2nd level of foliage ([2]; 3.4 μmol of 57Fe/kg of soil): 28.75 | The SPAD index, 3rd level of foliage ([2]; 3.4 μmol of 57Fe/kg of soil): 35.91 | The SPAD index, 2nd level of foliage ([2]; 8.4 μmol of 57Fe/kg of soil): 42.50 | The SPAD index, 3rd level of foliage ([2]; 8.4 μmol of 57Fe/kg of soil): 43.18 | The SPAD index, 2nd level of foliage ([2]; 16.8 μmol of 57Fe/kg of soil): 27.92 | The SPAD index, 3rd level of foliage ([2]; 16.8 μmol of 57Fe/kg of soil): 37.73 | The SPAD index, 2nd level of foliage ([2]; 25.1 μmol of 57Fe/kg of soil): 27.92 | The SPAD index, 3rd level of foliage ([2]; 25.1 μmol of 57Fe/kg of soil): 37.73 | The SPAD index, 2nd level of foliage ([2]; 41.9 μmol of 57Fe/kg of soil): 29.17 | The SPAD index, 3rd level of foliage ([2]; 41.9 μmol of 57Fe/kg of soil): 43.64

O=C([O-])CN(CCN(CC(=O)[O-])Cc1ccccc1[O-])Cc1ccccc1[O-].[Fe+3].[Na+] [HBED/Fe^3+]
ΔSPAD index of leaves ([3]; day 0 after application): 0 | ΔSPAD index of leaves ([3]; day 20 after application): 11.50 | ΔSPAD index of leaves ([3]; day 40 after application): 16.75 | ΔSPAD index of leaves ([3]; day 63 after application): 16.23 | ΔSPAD index compared with EDDHA/Fe3+ ([3]; Table 5): does not show any significant differences | Use against iron deficiencies ([3]; soils of alkaline pH and high concentration of calcium ions): may be successfully used against iron deficiencies | The SPAD index of the fructifying branches [4, 5]: 36.46 | The SPAD index of the non-fructifying branches [4, 5]: 34.39 | The SPAD index of the fructifying branches [4, 6]: 37.82 | The SPAD index of the non-fructifying branches [4, 6]: 36.46 | The SPAD index of the fructifying branches [4, 7]: 37.09 | The SPAD index of the non-fructifying branches [4, 7]: 34.46 | The SPAD index of the fructifying branches [4, 8]: 36.54 | The SPAD index of the non-fructifying branches [4, 8]: 34.69 | The SPAD index of the fructifying branches [4, 9]: 38.64 | The SPAD index of the non-fructifying branches [4, 9]: 37.46 | The SPAD index of the fructifying branches [4, 10]: 37.36 | The SPAD index of the non-fructifying branches [4, 10]: 36.54 | The SPAD index of the fructifying branches [4, 11]: 35.45 | The SPAD index of the non-fructifying branches [4, 11]: 35.69 | The SPAD index of the fructifying branches [4, 12]: 37.91 | The SPAD index of the non-fructifying branches [4, 12]: 35.77 | The SPAD index of the fructifying branches [4, 13]: 37.27 | The SPAD index of the non-fructifying branches [4, 13]: 36.54 | The SPAD index of the fructifying branches [4, 14]: 37.64 | The SPAD index of the non-fructifying branches [4, 14]: 33.69 | The SPAD index of the fructifying branches [4, 15]: 39.73 | The SPAD index of the non-fructifying branches [4, 15]: 39.00 | The SPAD index of the fructifying branches [4, 16]: 37.27 | The SPAD index of the non-fructifying branches [4, 16]: 37.46 | SPAD index values compared with EDDHA/Fe3+ ([4]; fructifying and non-fructifying branches, Tables 3 and 4): comparable | Effect on symptoms of chlorosis ([4]; testing field No. 1): effectively reduces the symptoms of chlorosis
